Results on one compound are retold here after patent publication US20240226025A1, “POLYNUCLEOTIDES ENCODING METHYLMALONYL-COA MUTASE FOR THE TREATMENT OF METHYLMALONIC ACIDEMIA” (ModernaTX, Inc., priority 2021, published 2024).

The test system of the experiment is CD-1 mice. In words: Expression of luciferase induced by lipid nanoparticles in mice (bioluminescence). In kind it is in vivo, mouse. The following applies: luciferase mRNA LNP. The method, then: To further assess potency of expression and metabolic stability of lipids of the disclosure, expression of luciferase was measured following administration to rodents of a nanoparticle of the disclosure comprising an mRNA containing luciferase.
Lipid nanoparticles including DSPC as a phospholipid, cholesterol as a structural lipid, Compound I as a PEG lipid, an ionizable amino lipid of Formula (II), and an mRNA encoding luciferase were intravenously administered to CD-1 mice and Sprague Dawley rats. […]

Take `CCCCCCCCC(CCCCCCCC)OC(=O)CCCCCCCN(CCCCCCCC(=O)OCC(CCCC)CCCCCCC)CCCNc1c(NC)c(=O)c1=O` (stereo not shown) [Compound 10]: the “Total Whole Body Flux @ 6 h (p/s)” value is recorded as 4.6E+09 p/s.
